Tested on: tobacco budworm (Heliothis virescens [Fabricius])
Assay: surface-treated diet test, insecticidal activity against tobacco budworm
Format: in vivo
Design: mortality: concentration or dose not given beside the values
Details: 0.25 millimoles of candidate insecticide on the surface of the diet, second instar larvae, five-day exposure
Method in brief: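 Wheat germ artificial diet surface-treated with compound from 50 mM DMSO stock diluted 1:7 in 1:1 water/acetone (0.25 millimolar on diet), or lower-rate dilutions; DMSO-only controls. One second-instar larva per well, 25° C, 60% RH, 14 h light, five days; percent weight inhibition versus untreated and percent mortality scored.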

[1] = compared to total number of insects infested
[2] = inhibition of insect weight relative to untreated controls

Structure (SMILES)	Percent Mortality [1]	Percent Growth Inhibition [2]	mortality (Heliothis virescens, 120 h, compared to total number of insects infested, read-out: Percent Mortality)	pest or weed control at 0.25 mmol/well (Heliothis virescens, 120 h, inhibition of insect weight relative to untreated controls, read-out: Percent Growth Inhibition)
O=C(NC1CCCC1)Oc1ccc(CN2CCC(O)(C(c3ccc(OC(F)(F)F)cc3)c3ccc(OC(F)(F)F)cc3)CC2)cc1 [Compound 320]	100%	100%	–	–
Cc1ccnc(Oc2ccc(CN3CCC(O)(C(c4ccc(OC(F)(F)F)cc4)c4ccc(OC(F)(F)F)cc4)CC3)cc2)c1 [Compound 321]	100%	100%	–	–
OC1(C(c2ccc(OC(F)(F)F)cc2)c2ccc(OC(F)(F)F)cc2)CCN(Cc2ccc(Oc3ncccc3Cl)cc2)CC1 [Compound 322]	100%	100%	–	–
O=C(NCc1ccc(Cl)c(Cl)c1)Oc1ccc(CN2CCC(O)(C(c3ccc(OC(F)(F)F)cc3)c3ccc(OC(F)(F)F)cc3)CC2)cc1 [Compound 323]	33%	100%	–	–
O=C(Nc1ccc(Cl)cc1)Oc1ccc(CN2CCC(O)(C(c3ccc(OC(F)(F)F)cc3)c3ccc(OC(F)(F)F)cc3)CC2)cc1 [Compound 324]	33%	100%	–	–
CCCCNC(=O)Oc1ccc(CN2CCC(O)(C(c3ccc(OC(F)(F)F)cc3)c3ccc(OC(F)(F)F)cc3)CC2)cc1 [Compound 326]	100%	100%	–	–
O=C(Nc1ccc(CN2CCC(O)(C(c3ccc(OC(F)(F)F)cc3)c3ccc(OC(F)(F)F)cc3)CC2)cc1)OCC1CC1 [Compound 327]	100%	100%	–	–
O=C(NC1CCCCC1)Oc1ccc(CN2CCC(O)(C(c3ccc(OC(F)(F)F)cc3)c3ccc(OC(F)(F)F)cc3)CC2)cc1 [Compound 329]	67%	100%	–	–
CC(C)OC(=O)c1ccc(CN2CCC(O)(C(c3ccc(C(F)(F)F)cc3)c3ccc(C(F)(F)F)cc3)CC2)cc1 [Compound 330]	100%	100%	–	–
CC(C)(C)c1ccc(C(c2ccc(OC(F)(F)F)cc2)C2(O)CC[N+]([O-])(Cc3ccc(Oc4ccccn4)cc3)CC2)cc1 (stereo not shown) [Compound 335]	100%	100%	–	–
COCCOCCON=Cc1ccc(C[N+]2([O-])CCC(O)(C(c3ccc(OC(F)(F)F)cc3)c3ccc(OC(F)(F)F)cc3)CC2)cc1 (stereo not shown) [Compound 336]	100%	100%	–	–
CCOCON=Cc1ccc(C[N+]2([O-])CCC(O)(C(c3ccc(OC(F)(F)F)cc3)c3ccc(OC(F)(F)F)cc3)CC2)cc1 (stereo not shown) [Compound 337]	100%	100%	–	–
COc1ccc(C(c2ccc(OC(F)(F)F)cc2)C2(O)CC[N+]([O-])(Cc3ccc(Oc4ccccn4)cc3)CC2)cc1 (stereo not shown) [Compound 338]	100%	100%	–	–
[O-][N+]1(Cc2ccc(Oc3ccccn3)cc2)CCC(O)(C(c2ccc(Br)cc2)c2ccc(OC(F)(F)F)cc2)CC1 (stereo not shown) [Compound 339]	100%	100%	–	–
Cc1ccc(C(c2ccc(OC(F)(F)F)cc2)C2(O)CC[N+]([O-])(Cc3ccc(Oc4ccccn4)cc3)CC2)cc1 (stereo not shown) [Compound 340]	100%	100%	–	–
[O-][N+]1(Cc2ccc(C3OCCO3)cc2)CCC(O)(C(c2ccc(OC(F)(F)F)cc2)c2ccc(OC(F)(F)F)cc2)CC1 (stereo not shown) [Compound 341]	100%	100%	–	–
[O-][N+]1(Cc2ccc(C3OCCO3)cc2)CCC(O)(C(c2ccc(C(F)(F)F)cc2)c2ccc(C(F)(F)F)cc2)CC1 (stereo not shown) [Compound 342]	100%	100%	–	–
[O-][N+]1(Cc2ccc(Oc3ccccn3)cc2)CCC(O)(C(c2ccc(OC(F)(F)F)cc2)c2ccc(C(F)(F)F)cc2)CC1 (stereo not shown) [Compound 343]	100%	100%	–	–
COCCON=Cc1ccc(C[N+]2([O-])CCC(O)(C(c3ccc(OC(F)(F)F)cc3)c3ccc(OC(F)(F)F)cc3)CC2)cc1 (stereo not shown) [Compound 344]	100%	100%	–	–
[O-][N+]1(Cc2ccc(Oc3ccccn3)cc2)CCC(O)(C(c2ccc(Cl)cc2)c2ccc(Cl)cc2)CC1 (stereo not shown) [Compound 345]	100%	100%	–	–
[O-][N+]1(Cc2ccc(Oc3ccccn3)cc2)CCC(O)(C(c2ccc(F)cc2)c2ccc(OC(F)(F)F)cc2)CC1 (stereo not shown) [Compound 346]	100%	100%	–	–
[O-][N+]1(Cc2ccc(Oc3ccccn3)cc2)CCC(O)(C(c2ccc(OC(F)F)cc2)c2ccc(OC(F)(F)F)cc2)CC1 (stereo not shown) [Compound 347]	100%	100%	–	–

Structure (SMILES)	Percent Mortality [1]	Percent Growth Inhibition [2]	mortality (Heliothis virescens, 120 h, compared to total number of insects infested, read-out: Percent Mortality)	pest or weed control at 0.25 mmol/well (Heliothis virescens, 120 h, inhibition of insect weight relative to untreated controls, read-out: Percent Growth Inhibition)
Cc1cccnc1Oc1ccc(C[N+]2([O-])CCC(O)(C(c3ccc(OC(F)(F)F)cc3)c3ccc(OC(F)(F)F)cc3)CC2)cc1 (stereo not shown) [Compound 349]	100%	100%	–	–
Cc1ccc(Oc2ccc(C[N+]3([O-])CCC(O)(C(c4ccc(OC(F)(F)F)cc4)c4ccc(OC(F)(F)F)cc4)CC3)cc2)nc1 (stereo not shown) [Compound 350]	100%	100%	–	–
CCOC(OCC)c1ccc(C[N+]2([O-])CCC(O)(C(c3ccc(OC(F)(F)F)cc3)c3ccc(OC(F)(F)F)cc3)CC2)cc1 (stereo not shown) [Compound 351]	100%	100%	–	–
N#CCON=Cc1ccc(C[N+]2([O-])CCC(O)(C(c3ccc(OC(F)(F)F)cc3)c3ccc(OC(F)(F)F)cc3)CC2)cc1 (stereo not shown) [Compound 353]	100%	100%	–	–
Cc1cccc(Oc2ccc(C[N+]3([O-])CCC(O)(C(c4ccc(OC(F)(F)F)cc4)c4ccc(OC(F)(F)F)cc4)CC3)cc2)n1 (stereo not shown) [Compound 354]	100%	100%	–	–
CON=C(Cl)c1ccc(C[N+]2([O-])CCC(O)(C(c3ccc(OC(F)(F)F)cc3)c3ccc(OC(F)(F)F)cc3)CC2)cc1 (stereo not shown) [Compound 355]	100%	100%	–	–
CCOC(=O)COc1ccc(C[N+]2([O-])CCC(O)(C(c3ccc(OC(F)(F)F)cc3)c3ccc(OC(F)(F)F)cc3)CC2)cc1 (stereo not shown) [Compound 357]	0%	100%	–	–
CC1(C)COC(c2ccc(C[N+]3([O-])CCC(O)(C(c4ccc(OC(F)(F)F)cc4)c4ccc(OC(F)(F)F)cc4)CC3)cc2)OC1 (stereo not shown) [Compound 358]	100%	100%	–	–
N#Cc1cccnc1Oc1ccc(C[N+]2([O-])CCC(O)(C(c3ccc(OC(F)(F)F)cc3)c3ccc(OC(F)(F)F)cc3)CC2)cc1 (stereo not shown) [Compound 359]	100%	100%	–	–
[O-][N+]1(Cc2ccc(C3OCCCO3)cc2)CCC(O)(C(c2ccc(OC(F)(F)F)cc2)c2ccc(OC(F)(F)F)cc2)CC1 (stereo not shown) [Compound 370]	100%	100%	–	–
[O-][N+]1(Cc2ccc(OCC=C(Cl)Cl)cc2)CCC(O)(C(c2ccc(OC(F)(F)F)cc2)c2ccc(OC(F)(F)F)cc2)CC1 (stereo not shown) [Compound 371]	100%	100%	–	–
[O-][N+]1(Cc2ccc(Oc3ccccc3Cl)cc2)CCC(O)(C(c2ccc(OC(F)(F)F)cc2)c2ccc(OC(F)(F)F)cc2)CC1 (stereo not shown) [Compound 375]	100%	100%	–	–
[O-][N+]1(Cc2ccc(C=NOCC(F)(F)F)cc2)CCC(O)(C(c2ccc(OC(F)(F)F)cc2)c2ccc(OC(F)(F)F)cc2)CC1 (stereo not shown) [Compound 378]	100%	100%	–	–
CC(C)Oc1ccc(C[N+]2([O-])CCC(O)(C(c3ccc(C(F)(F)F)cc3)c3ccc(C(F)(F)F)cc3)CC2)cc1 (stereo not shown) [Compound 380]	100%	100%	–	–
[O-][N+]1(Cc2ccc(OCc3ccccc3)cc2)CCC(O)(C(c2ccc(OC(F)(F)F)cc2)c2ccc(OC(F)(F)F)cc2)CC1 (stereo not shown) [Compound 381]	100%	100%	–	–
[O-][N+]1(Cc2ccc(OCC3CC3)cc2)CCC(O)(C(c2ccc(C(F)(F)F)cc2)c2ccc(C(F)(F)F)cc2)CC1 (stereo not shown) [Compound 383]	100%	100%	–	–
[O-][N+]1(Cc2ccc(Oc3ccc(Cl)nn3)cc2)CCC(O)(C(c2ccc(C(F)(F)F)cc2)c2ccc(C(F)(F)F)cc2)CC1 (stereo not shown) [Compound 384]	100%	100%	–	–
COCCOc1ccc(C[N+]2([O-])CCC(O)(C(c3ccc(OC(F)(F)F)cc3)c3ccc(OC(F)(F)F)cc3)CC2)cc1 (stereo not shown) [Compound 385, 4-{bis[4-(trifluoromethoxy)phenyl]methyl}-4-hydroxy-1-{[4-(2-methoxyethoxy)phenyl]methyl}piperidin-1-oxide]	–	–	100%	100%
CCCOC(=O)Nc1ccc(C[N+]2([O-])CCC(O)(C(c3ccc(OC(F)(F)F)cc3)c3ccc(OC(F)(F)F)cc3)CC2)cc1 (stereo not shown) [Compound 387]	100%	100%	–	–
[O-][N+]1(Cc2ccc(C=NOCCF)cc2)CCC(O)(C(c2ccc(OC(F)(F)F)cc2)c2ccc(OC(F)(F)F)cc2)CC1 (stereo not shown) [Compound 389]	100%	100%	–	–
CCCOC(=O)Nc1ccc(C[N+]2([O-])CCC(O)(C(c3ccc(C(F)(F)F)cc3)c3ccc(C(F)(F)F)cc3)CC2)cc1 (stereo not shown) [Compound 390]	100%	100%	–	–
[O-][N+]1(Cc2ccc(Oc3ccccn3)cc2)CCC(O)(C(c2ccc(Cl)cc2)c2ccc(OC(F)(F)F)cc2)CC1 (stereo not shown) [Compound 391]	100%	100%	–	–
